Assay results published in patent US7851592B2, “Compositions and methods for inhibiting G2 cell cycle arrest and sensitizing cells to DNA damaging agents” (CanBas Co. Ltd., priority 1999, dated 2010).

Experiments:
Jurkat cells [1] = assay: Trypan blue dye exclusion analysis of Jurkat cells treated with bleomycin or colchicine with or without peptides; assay type: cell-based; conditions: FIG. 3A; bleomycin 5 or 10 μg/ml; peptide 10 μM
Method: The effect of TAT-S216A and TAT-S216 on the cell death induced by bleomycin was examined. The results are shown in FIG. 3; Trypan blue dye exclusion analysis of Jurkat cells treated with bleomycin (A) or colchicine (B) with or without indicated peptides. Bars, SD Vertical axis, % viability of the cells; Bleo 5, bleomycin 5 μg/ml; Bleo 10, bleomycin 10 μg/ml; colchicine, 5 μg/ml; TAT-S216 or TAT-S216A, 10 μM of indicated peptide. […] C, survival analysis of PHA blasts treated with bleomycin and peptides. Vertical axis, % viability of the cells determined by trypan blue dye exclusion analysis; horizontal axis, time in hours. Bleo 5, bleomycin 5 μg/ml; Bleo 10, bleomycin 10 μg/ml; TAT-S216 or TAT-S216A, 10 μM of indicated peptide. D, FACS analysis of the cells treated with bleomycin and peptides. PHA-blasts were treated with bleomycin with or without peptides for 20 hr. Vertical axis, cell number; horizontal axis, DNA content indicated by propidium iodide staining.

[2] = tested on: histone H1 kinase activity; assay: Histone H1 kinase assay on lysates of treated Jurkat cells; assay type: cell-based, human; conditions: FIG. 2B; bleomycin 10 μg/ml; peptide 10 μM; 6 hr
Method: Histone H1 kinase assay. Ten million Jurkat cells were treated with hydroxyurea (100 μg/ml), bleomycin (10 μg/ml), or colchicine (5 μg/ml) with or without addition of TAT-S216A, TAT-S216 or TAT-Control (10 μM) for 6 hr. The cells were washed in cold PBS and lysed at 4° C. in 1 ml of buffer A (50 mM Tris pH 8, 2 mM DTT, 5 mM EDTA, 100 mM NaCl, 0.5% NP40, 20 mM Na3V04, 50 mM NaF, 4 μM Okadaic acid, 5 μg/ml aprotinin, 5 μg/ml pepstatin A and 5 μg/ml leupeptin.). Twenty microliter of p13^suc1 agarose beads (Upstate Biotechnology., Saranac, N.Y.) were added to the cleared lysates, incubated for 4 hr at 4° C., and washed five times with buffer A without 5 mM EDTA, 20 mM Na3V04, 50 mM NaF, 4 μM Okadaic acid. Histone HI kinase activity on the beads were analyzed by using Cdc2 kinase assay kit (Upstate Biotechnology) with [γ-^32P] ATP, followed by 12% SDS-PAGE electrophoresis, and autoradiographed to detect the phosphorylated Histone H1.
(§1) The cell cycle status of the cells treated with TAT-S216A or TAT-S216 upon the DNA damage-induced G2 arrest was analyzed by FACS analysis. Histone H1 kinase activities of theses cells were simultaneously monitored. […] Results are shown in FIG. 2: abrogation of DNA damage-induced G2 arrest by TAT-S216A and TAT-S216 peptides. FIG. 2A, FACS analysis of Jurkat cells treated with bleomycin and peptides. Cells were treated with bleomycin (10 μg/ml) with or without peptides (10 μM) for 20 hr. B, histone H1 kinase analysis. Cell lysates were prepared from the cells treated with the indicated reagent for 6 hr. Concentrations used were: hydroxyurea (HU), 100 μg/ml; bleomycin (Bleo), 10 μg/ml; colchicine, 5 μg/ml; TAT-S216A and TAT-S216, 10 μM. C, FACS analysis of colchicine -and peptide-treated cells. Jurkat cells were treated with colchicine (5 μg/ml) with or without peptide (10 μM) for 20 hr.

Jurkat cells [3] = assay: Cell-cycle analysis by FACS, DNA damage-induced G2 arrest; assay type: cell-based, human; conditions: FIG. 2A; bleomycin 10 μg/ml; peptide 10 μM; 20 hr
Method: Cell-cycle analysis. The cell cycle status of the cells treated with peptides and/or bleomycin or colchicine was analyzed by FACS, as described by Kawabe (1997) Nature 385:454-458. In brief, two million Jurkat cells were re-suspended and incubated in 300 μl Krishan's solution (0.1% Sodium citrate, 50 μg/ml PI, 20 μg/ml RNase A and 0.5% NP-40; see supra) for 1 hr at 4° C. and analyzed by FACScan™ (Beckton Dickinson, Mountain View, Calif.) with the program CELLQuest™ (Beckton Dickinson).
as §1

hChk1 = biological target: T1, hChk1 (Homo sapiens, UniProt O14757, I471V); assay: In vitro immune complex kinase assay, Cdc25C phosphorylation by purified hChk1; assay type: biochemical; conditions: FIG. 1B; peptide 10 μM; substrate 1 μM
T1 construct: made in house; host or cells: insect cells, recombinant baculovirus (lysates provided by Dr. Makoto Nakanishi)
T1 sequence (O14757 1-476 I471V): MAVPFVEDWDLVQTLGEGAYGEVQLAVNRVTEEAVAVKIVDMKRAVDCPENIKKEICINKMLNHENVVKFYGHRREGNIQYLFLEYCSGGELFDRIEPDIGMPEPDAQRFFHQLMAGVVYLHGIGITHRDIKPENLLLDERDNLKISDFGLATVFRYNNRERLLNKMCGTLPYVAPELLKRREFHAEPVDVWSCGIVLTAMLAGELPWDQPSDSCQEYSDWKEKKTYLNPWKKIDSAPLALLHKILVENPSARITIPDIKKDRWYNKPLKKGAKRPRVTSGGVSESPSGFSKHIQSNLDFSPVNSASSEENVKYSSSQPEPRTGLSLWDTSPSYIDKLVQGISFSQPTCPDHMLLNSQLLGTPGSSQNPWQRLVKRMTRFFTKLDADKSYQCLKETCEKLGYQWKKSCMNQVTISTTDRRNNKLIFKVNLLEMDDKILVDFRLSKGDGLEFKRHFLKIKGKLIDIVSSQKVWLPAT
Method: Kinase assay. HA-tagged hChk1 (SEQ ID NO:3) and c-myc-tagged Chk2/HuCds1 (SEQ ID NO:4) expressed in insect cells using recombinant baculovirus (see, e.g., Kaneko (1999) Oncogene 18:3673-3681) were purified by immunoprecipitation using anti-HA or anti-c-myc antibodies and protein G-Sepharose. Immune complex kinase reaction was done in PBS with 1 mM DTT, 1 mM MgCl2 and 100 μCi of [γ-^32P] ATP (Amersham; 6000 Ci/mmol) plus purified 1 μM GST-Cdc25C or 10 μM Cdc25C peptide (amino acid 211 to 221 of Cdc25C (SEQ ID NO: 2); […], Sawady Technology Co.) substrates at 30° C. for 15 min in the presence of 10 μM TAT-S216, TAT-S216A or TAT-Control. After the reaction, samples were separated in 12% or 15% SDS-PAGE and autoradiographed to detect GST-Cdc25C or peptide phosphorylation.
The results are shown in FIG. 1: TAT-S216A and TAT-S216 peptides inhibit hChk1 and Chk2/HuCds1 kinase activities in vitro. FIG. 1A. sequences of the peptides. FIG. 1B, in vitro phosphorylation analysis using GST-Cdc25C and purified hChk1. GST-Cdc25C (amino acid 200-256) that was produced in E. coli (DH5α) was used as substrate (1 μM). Immune complex kinase reaction was done in the presence of TAT-S216A (10 μM) or TAT-S216 (10 μM). FIG. 1C, in vitro phosphorylation analysis of hChk1 and Chk2/HuCds1 using synthesized Cdc25C peptide corresponding amino acid 211-221 of Cdc25C ([…] (SEQ ID NO: 2)) as a substrate (10 μM).

Jurkat cells [4] = assay: FACS DNA content of bleomycin-treated Jurkat cells with oligopeptides (Example 3); assay type: cell-based, human; conditions: FIG. 6, bleomycin 20 μg/ml, 0, 6, 12, 24 hours
Method: The cells with the deficient cell cycle G1 checkpoint (such as a human leukemia-derived cell line Jurkat) were treated with a DNA damaging treatment. As the DNA damaging treatment, the cells were treated with bleomycin or other anti-cancer drugs. These drugs were added to the cell culture medium. Alternatively, the cells were irradiated with gamma irradiation. Peptides were added to these cells and the amount of DNA was determined some 10 to 48 hours after the DNA damage. The harvested cells were re-suspended with the solution that includes propidium iodide, RNase and NP-40 and analyzed by flow cytometer. […]
Jurkat cells were cultured in 10% fetal calf serum with a medium (RPMI 1640) at 37° C./5% CO2 with: bleomycin at 20 μg/ml; bleomycin at 20 μg/ml and the peptide “4aa” (amino acid sequence is GGSPSM (SEQ ID NO: 1931)); bleomycin at 20 μg/ml and the peptide AAA (Table 1); bleomycin at 20 μg/ml and the peptide YNP (Table 1). The amount of DNA was analyzed at 0, 6, 12, 24 hours after the addition of ten microgram of bleomycin with or without the oligopeptides “4aa,” “YNP” and “AAA.” The DNA quantity was analyzed by a flow cytometer (FACS) after the addition of a solution comprising propidium iodide, RNase and NP-40. […]

Jurkat cells [5] = assay: FACS DNA content of colchicine-treated Jurkat cells with oligopeptides (Example 3); assay type: cell-based, human; conditions: FIG. 7; colchicine 2.5 μg/ml
Method: Other screening methods can be used to identify selective inhibitors of the G2 cell cycle checkpoint. For, the cells are simultaneously treated with an oligopeptide “candidate phosphorylation substrate” and an M phase checkpoint activator, such as colchicine or nocodazol. The DNA content of the cells are analyzed some 10 to 48 hours after the treatment as described above.
In another experiment, an M phase checkpoint activator, colchicine, was used instead of bleomycin: colchicine at 2.5 μg/ml; colchicine at 2.5 μg/ml and the peptide “4aa”; colchicine at 2.5 μg/ml and the peptide AAA (Table 1); colchicine at 2.5 μg/ml and the peptide YNP (Table 1), and no treatment.

| Substance | effect on bleomycin-induced cell death / viability of bleomycin-treated Jurkat cells (Jurkat cells [1]) | histone H1 kinase activity on bleomycin treatment in the presence of peptide [2] | G2 arrest in response to bleomycin (Jurkat cells [3]) | phosphorylation of GST-Cdc25C (amino acid 200-256) by baculovirus-produced hChk1 (hChk1) | G2 checkpoint / accumulation of bleomycin-treated cells at G2/M (Jurkat cells [4]) | G2 checkpoint / accumulation of bleomycin-treated cells at G2/M (Jurkat cells [4]; listed as YNP) | accumulation of colchicine-treated cells at the G2/M phase (Jurkat cells [5]) |
| --- | --- | --- | --- | --- | --- | --- | --- |
| TAT-Control: control peptide: TAT domain with Cdc25C portion partially deleted and substituted with glycine (GGRSPAMPE) (YGRKKRRQRRRGGRSPAMPE) | did not affect the viability | did not affect | arrested at G2 similarly to the cells treated with bleomycin alone | did not inhibit |  |  |  |
| Y G G P G G G G N (YGGPGGGGN) [YPN] |  |  |  |  | specifically abrogated the cell cycle at the G2 checkpoint | abrogated the G2 checkpoint | None of the above tested oligopeptides (Table 1), including, YPN, affected the accumulation |
